Reference: ChEMBL document CHEMBL1156230, “Identification of phenylsulfone-substituted quinoxaline (WYE-672) as a tissue selective liver X-receptor (LXR) agonist” (J Med Chem, 2010)
The source made the active and inactive calls. No cut-off for these calls is given here.

Legend:
[1] = Cmax in C57 mouse at 10 mg/kg, po; type: ADME, organism-based; parameters: dose 10 mg/kg, route oral; settings: in vivo
[2] = Plasma concentration in high fat/high cholesterol fed LDLR-deficient mouse at 3 mg/kg, qd administered with diet for 8 weeks measured after 3 hrs of last dose; type: ADME, organism-based; parameters: dose 3 mg/kg; settings: po
[3] = biological target: T1, Bile acid receptor (Homo sapiens) (UniProt Q96RI1); assay: Binding affinity to FXR
T1 sequence (whole entry): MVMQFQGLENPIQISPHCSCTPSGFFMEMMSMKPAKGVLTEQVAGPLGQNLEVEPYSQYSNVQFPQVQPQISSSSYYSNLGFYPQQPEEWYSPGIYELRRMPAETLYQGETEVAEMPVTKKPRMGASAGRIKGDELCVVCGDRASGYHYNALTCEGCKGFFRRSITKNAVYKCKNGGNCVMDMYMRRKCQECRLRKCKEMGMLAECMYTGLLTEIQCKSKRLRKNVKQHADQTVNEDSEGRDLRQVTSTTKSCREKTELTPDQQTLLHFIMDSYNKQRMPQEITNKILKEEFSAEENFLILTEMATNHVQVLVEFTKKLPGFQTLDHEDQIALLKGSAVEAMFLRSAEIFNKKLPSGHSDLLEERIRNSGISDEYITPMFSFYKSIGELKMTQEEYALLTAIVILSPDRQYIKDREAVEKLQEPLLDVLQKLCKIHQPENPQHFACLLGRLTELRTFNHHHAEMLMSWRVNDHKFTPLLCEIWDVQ

[4] = tested on: THP-1; assay: cells; settings: Homo sapiens
[5] = biological target: T2, Estrogen receptor (Homo sapiens) (UniProt P03372); assay: Binding affinity to estrogen receptor
T2 sequence (whole entry): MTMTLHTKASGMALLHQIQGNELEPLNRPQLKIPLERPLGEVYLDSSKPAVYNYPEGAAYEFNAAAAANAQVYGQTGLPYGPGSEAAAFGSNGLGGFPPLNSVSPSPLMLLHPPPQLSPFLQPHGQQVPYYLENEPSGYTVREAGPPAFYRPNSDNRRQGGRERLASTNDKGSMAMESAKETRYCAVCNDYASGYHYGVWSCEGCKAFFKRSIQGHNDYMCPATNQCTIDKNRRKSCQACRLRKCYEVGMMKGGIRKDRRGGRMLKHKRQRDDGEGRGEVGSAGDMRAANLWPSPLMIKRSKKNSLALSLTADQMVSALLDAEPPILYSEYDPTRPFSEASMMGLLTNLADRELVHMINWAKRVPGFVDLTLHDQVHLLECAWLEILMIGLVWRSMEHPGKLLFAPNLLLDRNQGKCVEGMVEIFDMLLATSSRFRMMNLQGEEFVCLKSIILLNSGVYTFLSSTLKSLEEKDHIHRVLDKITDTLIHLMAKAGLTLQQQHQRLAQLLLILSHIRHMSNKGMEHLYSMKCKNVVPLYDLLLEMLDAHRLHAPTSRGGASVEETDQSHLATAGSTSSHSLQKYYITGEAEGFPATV

[6] = biological target: Oxysterols receptor LXR-beta (Homo sapiens, UniProt P55055)
Sequence of Oxysterols receptor LXR-beta (P55055 whole entry): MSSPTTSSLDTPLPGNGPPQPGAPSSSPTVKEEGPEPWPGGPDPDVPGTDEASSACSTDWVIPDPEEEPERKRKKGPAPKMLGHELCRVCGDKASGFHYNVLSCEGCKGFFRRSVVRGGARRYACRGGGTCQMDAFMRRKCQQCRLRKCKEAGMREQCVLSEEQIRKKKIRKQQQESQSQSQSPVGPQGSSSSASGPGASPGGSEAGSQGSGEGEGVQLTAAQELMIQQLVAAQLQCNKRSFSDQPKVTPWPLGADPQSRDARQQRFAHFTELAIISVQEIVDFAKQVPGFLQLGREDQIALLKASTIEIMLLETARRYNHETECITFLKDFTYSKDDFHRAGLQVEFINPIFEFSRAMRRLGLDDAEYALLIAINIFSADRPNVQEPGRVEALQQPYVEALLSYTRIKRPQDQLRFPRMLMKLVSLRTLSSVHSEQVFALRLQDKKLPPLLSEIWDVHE

[7] = Binding affinity to thyroid hormone receptor
[8] = biological target: T3, Androgen receptor (Homo sapiens) (UniProt P10275); assay: Binding affinity to androgen receptor
T3 sequence (whole entry): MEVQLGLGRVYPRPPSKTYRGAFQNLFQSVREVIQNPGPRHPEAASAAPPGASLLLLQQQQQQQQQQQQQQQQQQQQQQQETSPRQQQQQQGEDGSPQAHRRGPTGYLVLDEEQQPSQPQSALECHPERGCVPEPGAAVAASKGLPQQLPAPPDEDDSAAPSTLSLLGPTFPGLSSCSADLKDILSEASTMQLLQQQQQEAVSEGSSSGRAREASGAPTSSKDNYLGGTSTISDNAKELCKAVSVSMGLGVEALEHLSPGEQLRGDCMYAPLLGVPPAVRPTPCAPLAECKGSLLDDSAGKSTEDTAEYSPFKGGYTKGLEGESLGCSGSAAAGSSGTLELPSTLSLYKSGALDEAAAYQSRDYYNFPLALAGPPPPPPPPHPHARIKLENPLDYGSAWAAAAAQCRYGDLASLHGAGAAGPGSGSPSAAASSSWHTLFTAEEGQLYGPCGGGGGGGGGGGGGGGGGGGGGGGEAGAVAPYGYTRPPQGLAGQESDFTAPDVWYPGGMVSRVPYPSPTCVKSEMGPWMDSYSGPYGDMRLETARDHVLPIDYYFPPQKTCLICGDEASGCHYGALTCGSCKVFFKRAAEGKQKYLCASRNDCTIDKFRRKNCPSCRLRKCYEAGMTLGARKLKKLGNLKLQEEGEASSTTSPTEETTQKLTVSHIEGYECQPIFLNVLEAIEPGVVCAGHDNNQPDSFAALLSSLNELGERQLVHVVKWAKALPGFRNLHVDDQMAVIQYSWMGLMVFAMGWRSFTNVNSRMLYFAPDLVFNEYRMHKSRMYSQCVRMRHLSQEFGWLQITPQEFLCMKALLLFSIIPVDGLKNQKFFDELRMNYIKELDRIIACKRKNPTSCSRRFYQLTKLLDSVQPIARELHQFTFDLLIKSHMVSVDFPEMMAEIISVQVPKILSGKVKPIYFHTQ

[9] = biological target: T4, Peroxisome proliferator-activated receptor gamma (Homo sapiens) (UniProt P37231); assay: Binding affinity to PPARgamma
T4 sequence (whole entry): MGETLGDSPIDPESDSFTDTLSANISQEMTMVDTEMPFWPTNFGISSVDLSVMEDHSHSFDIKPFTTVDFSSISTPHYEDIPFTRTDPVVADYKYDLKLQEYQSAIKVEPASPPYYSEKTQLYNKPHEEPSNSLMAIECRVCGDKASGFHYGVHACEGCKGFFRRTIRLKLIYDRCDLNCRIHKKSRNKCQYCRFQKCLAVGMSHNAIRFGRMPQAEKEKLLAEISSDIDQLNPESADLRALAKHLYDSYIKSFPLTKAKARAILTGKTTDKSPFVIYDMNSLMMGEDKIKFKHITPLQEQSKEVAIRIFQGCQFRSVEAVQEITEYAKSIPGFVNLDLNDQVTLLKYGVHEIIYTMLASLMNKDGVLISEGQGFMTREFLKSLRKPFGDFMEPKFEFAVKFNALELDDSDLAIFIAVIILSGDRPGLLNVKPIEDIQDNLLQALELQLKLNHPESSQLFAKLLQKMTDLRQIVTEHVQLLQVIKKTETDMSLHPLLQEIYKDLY

[10] = tested on: Mus musculus; assay: Antiatherosclerotic activity against high fat/high cholesterol fed LDLR-deficient mouse assessed as ldlr gene regulation at 0.6 mg/kg administered with diet for 7 days by Experion chip analysis; type: functional, organism-based; parameters: dose 0.6 mg/kg
[11] = tested on: Mus musculus; assay: Antiatherosclerotic activity against high fat/high cholesterol fed LDLR-deficient mouse assessed as IPl gene regulation at 3 mg/kg administered with diet for 7 days by Experion chip analysis; type: functional, organism-based; parameters: dose 3 mg/kg
[12] = Plasma concentration in high fat/high cholesterol fed LDLR-deficient mouse administered with diet for 8 weeks measured after 3 hrs of last dose; type: ADME, organism-based; settings: po

Cmax [1] | concentration at 3 h [2] | Activity [3] | EC50 [4] | Activity [5] | EC50 [6] | Activity [7] | Activity [8] | Activity [9] | concentration at 3 h [12] | Structure (SMILES) | Activity [10] | Activity [11]
229 ng/mL | 10800 ng/mL | inactive | 1.09 µM | inactive | > 1 µM | inactive | inactive | inactive | – | Cc1nc2c(C(F)(F)F)cccc2nc1-c1ccc(-c2cccc(S(C)(=O)=O)c2)cc1 | – | –
– | – | – | – | – | – | – | – | – | 175 ng/mL | O=C(O)Cc1cccc(OCCCN(Cc2cccc(C(F)(F)F)c2Cl)CC(c2ccccc2)c2ccccc2)c1 | Active | Active
